Experimental data published in patent US10245261B2, “Substituted indol-5-ol derivatives and their therapeutic applications” (NantBioScience, Inc., priority 2013, dated 2019).

Tests used:
Assay in all cases: KinaseProfiler kinase assay
Format in all cases: biochemical
[1] = target: Arg(h) (Homo sapiens, UniProt P42684)
How it was run: (§1)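 Each enzyme was assayed radiometrically: 40 min room-temperature reaction with [γ-33P]ATP and 10 mM Mg acetate, acid-stopped, filtered, scintillation-counted.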

[2] = target: CDK3/cyclinE(h) (Homo sapiens, UniProt Q00526)
How it was run: as §1

[3] = target: CK1γ3(h) (Homo sapiens, UniProt Q9Y6M4)
How it was run: as §1

[4] = target: DDR2(h) (Homo sapiens, UniProt Q16832)
Sequence of DDR2(h) (Q16832 22-855): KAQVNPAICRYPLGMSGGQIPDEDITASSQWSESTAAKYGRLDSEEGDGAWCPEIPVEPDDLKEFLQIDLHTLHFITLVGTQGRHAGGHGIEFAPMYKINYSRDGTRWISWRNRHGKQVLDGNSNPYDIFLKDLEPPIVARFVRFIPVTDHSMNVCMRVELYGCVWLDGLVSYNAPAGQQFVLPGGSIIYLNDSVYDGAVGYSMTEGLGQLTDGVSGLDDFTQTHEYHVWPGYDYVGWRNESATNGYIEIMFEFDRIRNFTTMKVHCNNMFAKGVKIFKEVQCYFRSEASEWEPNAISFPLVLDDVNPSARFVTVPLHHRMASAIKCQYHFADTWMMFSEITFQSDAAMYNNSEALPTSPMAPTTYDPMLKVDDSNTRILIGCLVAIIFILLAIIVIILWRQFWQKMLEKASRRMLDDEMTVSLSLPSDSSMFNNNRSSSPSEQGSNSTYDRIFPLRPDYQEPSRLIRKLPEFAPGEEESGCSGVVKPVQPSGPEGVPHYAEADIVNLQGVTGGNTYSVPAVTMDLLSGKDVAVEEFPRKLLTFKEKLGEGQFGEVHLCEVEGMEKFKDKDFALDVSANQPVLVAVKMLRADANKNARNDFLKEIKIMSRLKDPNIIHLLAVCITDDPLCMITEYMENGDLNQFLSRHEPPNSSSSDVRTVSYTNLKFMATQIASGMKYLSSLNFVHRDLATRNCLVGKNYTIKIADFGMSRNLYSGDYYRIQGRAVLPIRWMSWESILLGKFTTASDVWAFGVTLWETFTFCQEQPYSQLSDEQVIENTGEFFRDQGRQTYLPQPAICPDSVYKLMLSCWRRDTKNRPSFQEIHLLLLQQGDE
How it was run: as §1

[5] = target: EGFR(L858R)(h) (Homo sapiens, UniProt P00533, L858R)
How it was run: as §1

[6] = target: EGFR(T790M, L858R)(h) (Homo sapiens, UniProt P00533, L858R/T790M)
How it was run: as §1

[7] = target: EphA4(h) (Homo sapiens, UniProt P54764)
How it was run: as §1

[8] = target: EphB1(h) (Homo sapiens, UniProt P54762)
How it was run: as §1

[9] = target: FAK(h) (Homo sapiens, UniProt Q05397)
How it was run: as §1

[10] = target: Fyn(h) (Homo sapiens, UniProt P06241)
How it was run: as §1

[11] = target: GRK7(h) (Homo sapiens, UniProt Q8WTQ7)
How it was run: as §1

[12] = target: IGF-1R(h) (Homo sapiens, UniProt P08069)
How it was run: as §1

[13] = target: JAK3(h) (Homo sapiens, UniProt P52333)
Sequence of JAK3(h) (P52333 whole entry): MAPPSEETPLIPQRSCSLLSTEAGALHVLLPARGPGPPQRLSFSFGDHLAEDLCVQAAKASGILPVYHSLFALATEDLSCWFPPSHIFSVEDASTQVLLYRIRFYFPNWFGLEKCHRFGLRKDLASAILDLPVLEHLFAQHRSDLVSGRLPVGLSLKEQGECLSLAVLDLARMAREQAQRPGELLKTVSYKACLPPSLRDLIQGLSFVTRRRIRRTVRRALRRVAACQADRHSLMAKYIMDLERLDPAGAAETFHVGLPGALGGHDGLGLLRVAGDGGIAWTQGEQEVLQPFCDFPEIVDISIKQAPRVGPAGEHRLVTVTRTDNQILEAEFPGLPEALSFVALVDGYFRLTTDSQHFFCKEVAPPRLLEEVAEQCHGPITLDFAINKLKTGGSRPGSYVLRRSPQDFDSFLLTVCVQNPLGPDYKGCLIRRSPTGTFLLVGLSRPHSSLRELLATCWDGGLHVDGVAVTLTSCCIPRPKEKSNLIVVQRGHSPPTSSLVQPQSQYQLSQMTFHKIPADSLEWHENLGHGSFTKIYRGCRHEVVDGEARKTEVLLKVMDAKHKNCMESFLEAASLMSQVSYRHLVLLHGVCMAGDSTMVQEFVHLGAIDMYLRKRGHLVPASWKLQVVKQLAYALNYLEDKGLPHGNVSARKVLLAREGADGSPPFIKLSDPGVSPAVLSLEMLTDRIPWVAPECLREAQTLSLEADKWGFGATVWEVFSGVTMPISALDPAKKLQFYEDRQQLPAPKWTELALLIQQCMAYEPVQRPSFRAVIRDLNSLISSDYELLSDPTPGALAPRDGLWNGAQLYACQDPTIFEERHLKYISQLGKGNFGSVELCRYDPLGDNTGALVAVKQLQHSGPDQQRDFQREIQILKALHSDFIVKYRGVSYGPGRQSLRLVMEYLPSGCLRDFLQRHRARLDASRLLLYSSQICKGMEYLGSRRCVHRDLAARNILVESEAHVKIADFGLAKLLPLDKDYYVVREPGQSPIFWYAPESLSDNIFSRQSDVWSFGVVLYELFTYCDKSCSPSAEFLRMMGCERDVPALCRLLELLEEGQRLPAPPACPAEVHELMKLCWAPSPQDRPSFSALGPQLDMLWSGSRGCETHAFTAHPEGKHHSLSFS
How it was run: as §1

[14] = target: Lck(h) activated (Homo sapiens, UniProt P06239)
How it was run: as §1

[15] = target: MARK1(h) (Homo sapiens, UniProt Q9P0L2)
How it was run: as §1

[16] = target: MRCKβ(h) (Homo sapiens, UniProt Q9Y5S2)
How it was run: as §1

[17] = target: Met(Y1248D)(h) (Homo sapiens, UniProt P08581, Y1230D)
How it was run: as §1

[18] = target: PI3 Kinase (p110α(E542K)/p85α)(h) (Homo sapiens, UniProt P42336, E542K)
How it was run: as §1

[19] = target: PI3 Kinase (p110α/p85α)(h) (Homo sapiens, UniProt P42336)
How it was run: as §1

[20] = target: PI3 Kinase (p110α/p85α)(m) (Mus musculus, UniProt P42337)
Sequence of PI3 Kinase (p110α/p85α)(m) (P42337 whole entry): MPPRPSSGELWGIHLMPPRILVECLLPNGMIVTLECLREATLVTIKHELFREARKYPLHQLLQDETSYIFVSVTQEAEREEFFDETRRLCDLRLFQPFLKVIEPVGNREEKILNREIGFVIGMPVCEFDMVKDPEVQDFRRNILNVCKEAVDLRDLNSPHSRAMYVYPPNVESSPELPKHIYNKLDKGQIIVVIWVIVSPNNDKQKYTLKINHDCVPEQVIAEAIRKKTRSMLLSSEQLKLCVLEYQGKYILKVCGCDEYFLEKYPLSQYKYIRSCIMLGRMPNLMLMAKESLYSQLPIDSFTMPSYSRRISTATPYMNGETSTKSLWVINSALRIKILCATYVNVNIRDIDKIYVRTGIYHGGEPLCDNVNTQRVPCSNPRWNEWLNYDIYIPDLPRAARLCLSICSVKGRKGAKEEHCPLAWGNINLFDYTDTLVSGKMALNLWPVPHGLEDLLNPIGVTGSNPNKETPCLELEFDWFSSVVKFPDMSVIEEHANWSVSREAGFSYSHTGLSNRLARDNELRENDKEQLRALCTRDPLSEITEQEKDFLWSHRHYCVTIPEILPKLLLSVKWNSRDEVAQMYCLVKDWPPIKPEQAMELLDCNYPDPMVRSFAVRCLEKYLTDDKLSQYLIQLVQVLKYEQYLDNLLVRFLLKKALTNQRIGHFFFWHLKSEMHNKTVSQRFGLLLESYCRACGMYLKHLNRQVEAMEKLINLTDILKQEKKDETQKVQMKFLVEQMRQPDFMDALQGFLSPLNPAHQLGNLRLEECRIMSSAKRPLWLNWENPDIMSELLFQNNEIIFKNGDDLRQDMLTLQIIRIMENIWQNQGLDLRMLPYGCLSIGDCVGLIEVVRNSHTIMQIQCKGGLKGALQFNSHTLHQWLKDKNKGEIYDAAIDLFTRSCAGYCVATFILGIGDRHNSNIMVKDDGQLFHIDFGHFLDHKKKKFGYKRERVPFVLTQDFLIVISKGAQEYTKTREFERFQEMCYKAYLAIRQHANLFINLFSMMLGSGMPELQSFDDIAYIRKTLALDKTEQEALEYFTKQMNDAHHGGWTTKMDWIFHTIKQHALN
Sequence of PI3 Kinase (p110α/p85α)(m) (P26450 whole entry partner): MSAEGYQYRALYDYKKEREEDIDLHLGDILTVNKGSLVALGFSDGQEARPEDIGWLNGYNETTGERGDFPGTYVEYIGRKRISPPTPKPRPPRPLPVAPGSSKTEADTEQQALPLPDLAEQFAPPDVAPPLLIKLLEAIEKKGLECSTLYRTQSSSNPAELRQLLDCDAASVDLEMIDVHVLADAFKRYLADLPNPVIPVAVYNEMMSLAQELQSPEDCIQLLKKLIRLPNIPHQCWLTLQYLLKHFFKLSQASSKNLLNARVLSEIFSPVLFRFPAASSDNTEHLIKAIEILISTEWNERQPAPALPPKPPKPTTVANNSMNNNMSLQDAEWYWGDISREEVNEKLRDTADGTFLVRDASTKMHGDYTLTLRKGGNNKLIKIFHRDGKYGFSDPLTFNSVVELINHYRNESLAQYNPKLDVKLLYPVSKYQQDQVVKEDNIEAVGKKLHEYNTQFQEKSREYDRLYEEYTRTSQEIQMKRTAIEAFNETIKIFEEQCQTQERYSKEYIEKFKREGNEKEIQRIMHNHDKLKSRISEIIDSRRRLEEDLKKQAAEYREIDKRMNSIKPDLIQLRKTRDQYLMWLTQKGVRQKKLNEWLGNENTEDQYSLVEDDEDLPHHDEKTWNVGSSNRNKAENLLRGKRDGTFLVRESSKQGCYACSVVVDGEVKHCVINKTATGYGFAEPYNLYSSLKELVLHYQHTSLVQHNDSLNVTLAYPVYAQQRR
How it was run: as §1

[21] = target: PI3KC2γ(h) (Homo sapiens, UniProt O75747)
How it was run: as §1

[22] = target: PKBβ(h) (Homo sapiens, UniProt P31751)
How it was run: as §1

[23] = target: PKG1β(h) (Homo sapiens, UniProt Q13976)
Sequence of PKG1β(h) (Q13976 1-686 isoform Q13976-2): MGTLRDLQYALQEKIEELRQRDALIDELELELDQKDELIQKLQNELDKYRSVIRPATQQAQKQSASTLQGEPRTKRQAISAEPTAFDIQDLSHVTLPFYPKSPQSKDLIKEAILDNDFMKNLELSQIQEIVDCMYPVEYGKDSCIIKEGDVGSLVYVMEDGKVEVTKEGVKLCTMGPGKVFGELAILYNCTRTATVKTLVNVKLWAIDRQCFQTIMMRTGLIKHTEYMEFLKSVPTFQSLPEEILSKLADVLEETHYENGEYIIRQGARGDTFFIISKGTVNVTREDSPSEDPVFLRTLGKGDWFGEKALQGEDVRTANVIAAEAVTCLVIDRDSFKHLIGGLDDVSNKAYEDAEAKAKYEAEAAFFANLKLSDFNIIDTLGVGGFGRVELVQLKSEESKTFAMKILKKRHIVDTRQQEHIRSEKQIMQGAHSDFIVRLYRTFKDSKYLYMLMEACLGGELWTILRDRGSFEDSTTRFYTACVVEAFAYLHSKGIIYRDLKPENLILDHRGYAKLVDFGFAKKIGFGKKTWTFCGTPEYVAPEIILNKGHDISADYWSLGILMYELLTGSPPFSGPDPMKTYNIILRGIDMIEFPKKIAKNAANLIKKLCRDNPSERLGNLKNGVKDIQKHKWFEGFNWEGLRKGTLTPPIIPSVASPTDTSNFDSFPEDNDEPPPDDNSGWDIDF
How it was run: as §1

[24] = target: RIPK2(h) (Homo sapiens, UniProt O43353)
How it was run: as §1

[25] = target: Rsk1(h) (Homo sapiens, UniProt Q15418)
How it was run: as §1

[26] = target: Rsk4(h) (Homo sapiens, UniProt Q9UK32)
How it was run: as §1

[27] = target: SAPK4(h) (Homo sapiens, UniProt O15264)
Sequence of SAPK4(h) (O15264 whole entry): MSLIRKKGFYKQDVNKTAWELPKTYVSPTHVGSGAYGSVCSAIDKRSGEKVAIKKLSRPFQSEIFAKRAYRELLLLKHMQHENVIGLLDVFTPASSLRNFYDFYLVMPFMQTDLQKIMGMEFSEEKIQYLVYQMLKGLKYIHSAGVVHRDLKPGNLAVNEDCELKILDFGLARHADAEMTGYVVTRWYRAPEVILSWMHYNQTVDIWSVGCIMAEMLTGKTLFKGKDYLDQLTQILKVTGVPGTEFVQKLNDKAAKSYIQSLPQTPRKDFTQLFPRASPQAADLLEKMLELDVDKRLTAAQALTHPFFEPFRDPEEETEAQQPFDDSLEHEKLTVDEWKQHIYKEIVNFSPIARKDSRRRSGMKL
How it was run: as §1

[28] = target: SIK(h) (Homo sapiens, UniProt P57059)
How it was run: as §1

[29] = target: Src(T341M)(h) (Homo sapiens, UniProt P12931, T341M)
How it was run: as §1

[30] = target: Tec(h) activated (Homo sapiens, UniProt P42680)
How it was run: as §1

[31] = target: cKit(V560G)(h) (Homo sapiens, UniProt P10721, V560G)
How it was run: as §1

For `Cc1cc2c(F)c(Oc3nc(Nc4cc(C5CC5)[nH]n4)cc(N4CCN(C)CC4)n3)ccc2[nH]1` [Compound 10], the inhibition at 0.1 µM [1] was 104%, the inhibition at 0.1 µM [2] was 0% and the inhibition at 0.1 µM [3] was -12%. The inhibition at 0.1 µM [4] was 80%, the inhibition at 0.1 µM [5] was -5% and the inhibition at 0.1 µM [6] was 53%. It also gave an inhibition at 0.1 µM [7] of 52%, an inhibition at 0.1 µM [8] of 101% and an inhibition at 0.1 µM [9] of 22%. It also gave an inhibition at 0.1 µM [10] of 102%, an inhibition at 0.1 µM [11] of -4% and an inhibition at 0.1 µM [12] of 78%. For the same molecule, the inhibition at 0.1 µM [13] was 86%, the inhibition at 0.1 µM [14] was 97% and the inhibition at 0.1 µM [15] was 67%. It also gave an inhibition at 0.1 µM [16] of -6%, an inhibition at 0.1 µM [17] of 80% and an inhibition at 0.1 µM [18] of -1%. For the same molecule, the inhibition at 0.1 µM [19] was -1%, the inhibition at 0.1 µM [20] was 1% and the inhibition at 0.1 µM [21] was 27%. For the same molecule, the inhibition at 0.1 µM [22] was -35%, the inhibition at 0.1 µM [23] was -11% and the inhibition at 0.1 µM [24] was 1%. It also gave an inhibition at 0.1 µM [25] of -10%, an inhibition at 0.1 µM [26] of 36% and an inhibition at 0.1 µM [27] of -13%. The inhibition at 0.1 µM [28] was 50%, the inhibition at 0.1 µM [29] was 102% and the inhibition at 0.1 µM [30] was 46%. It also gave an inhibition at 0.1 µM [31] of 89%.
`Cc1cc2c(F)c(Oc3nc(Nc4cc(C5CC5)[nH]n4)cc(N4CCNCC4)n3)ccc2[nH]1` [Compound 11, N-(5-cyclopropyl-1H-pyrazol-3-yl)-2-((4-fluoro-2-methyl-1H-indol-5-yl)oxy)-6-(piperazin-1-yl)pyrimidin-4-amine] showed an inhibition at 0.1 µM [1] of 102%, an inhibition at 0.1 µM [2] of 33% and an inhibition at 0.1 µM [3] of -9%. For the same molecule, the inhibition at 0.1 µM [4] was 83%, the inhibition at 0.1 µM [5] was 23% and the inhibition at 0.1 µM [6] was 69%. For the same molecule, the inhibition at 0.1 µM [7] was 47%, the inhibition at 0.1 µM [8] was 100% and the inhibition at 0.1 µM [9] was 22%. It also gave an inhibition at 0.1 µM [10] of 99%, an inhibition at 0.1 µM [11] of 0% and an inhibition at 0.1 µM [12] of 62%. The inhibition at 0.1 µM [13] was 86%, the inhibition at 0.1 µM [14] was 100% and the inhibition at 0.1 µM [15] was 64%. The inhibition at 0.1 µM [16] was -16%, the inhibition at 0.1 µM [17] was 76% and the inhibition at 0.1 µM [18] was 0%. The inhibition at 0.1 µM [19] was 5%, the inhibition at 0.1 µM [20] was -1% and the inhibition at 0.1 µM [21] was -2%. For the same molecule, the inhibition at 0.1 µM [22] was -9%, the inhibition at 0.1 µM [23] was -2% and the inhibition at 0.1 µM [24] was 13%. It also gave an inhibition at 0.1 µM [25] of 9%, an inhibition at 0.1 µM [26] of 35% and an inhibition at 0.1 µM [27] of 3%. For the same molecule, the inhibition at 0.1 µM [28] was 56%, the inhibition at 0.1 µM [29] was 101% and the inhibition at 0.1 µM [30] was 20%. It also gave an inhibition at 0.1 µM [31] of 94%.
